Assay results reported in patent US20030211075A1 (priority 2001, published 2003).

Key:
[1] = progressive disease before treatment; cited from earlier work
[2] = tested on: Mouse bEnd.3 endothelial cells; assay: PS translocation and viability of endothelial cells exposed to H2O2; assay type: cell-based
Description: Mouse bEnd.3 endothelial cells were seeded at an initial density of 50,000 cells/well. Twenty-fours later cells were incubated with increasing concentrations of H2O2 (from 10 μM to 500 μM) for 1 hour at 37° C, or left untreated. At the end of the incubation, cells were washed 3 times with PBS containing 0.2% gelatin and fixed with 0.25% glutaraldehyde. Identical wells were either stained with anti-PS IgM or trypsinized and evaluated for viability by the Trypan Blue exclusion test. For the anti-PS staining, after blocking with 2% gelatin for 10 min., cells were incubated with 2 μg/ml of anti-PS antibody, followed by detection with anti-mouse IgM-HRP conjugate.

[3] = tested on: L540 human Hodgkin's disease tumors; assay: L540 tumors, immunoglobulin-tTF conjugate with etoposide; details: mouse, in vivo
Description: The tumor test systems were: i) L540 human Hodgkin's disease tumors growing in SCID mice; ii) C1300 Muγ (interferon-secreting) neuroblastoma growing in nu/nu mice; iii) H460 human non-small cell lung carcinoma growing in nu/nu mice. To establish solid tumors, 1.5×10^7 tumor cells were injected subcutaneously into the right anterior flank of SCID or BALB/c nu/nu mice (Charles River Labs., Wilmingham, Mass.). When the tumors had grown to various diameters, mice were assigned to different experimental groups, each containing 4 to 9 mice.
Mice bearing L540 human Hodgkin's disease tumors were treated with a complex of tTF219 and a bispecific antibody together with the anti-cancer drug, etoposide, at a conventional dose.

[4] = tested on: HT29 human colorectal carcinoma; assay: HT29 xenograft, tumor growth and necrosis after tTF constructs and Factor VIIa; assay type: in vivo, mouse; details: mouse, in vivo, iv
[5] = cited from earlier work
[6] = Toxicity to mice of agents given separately; details: mouse, in vivo
human endoglin (human) = human endoglin (human) (UniProt P17813); assay: in vivo localization, human/SCID animal with human skin graft containing a tumor, overnight
HUVEC cells = assay: FACS analysis of tissue factor expression on endothelial cells; assay type: cell-based, human; details: TNFα 500 U/ml, LPS 10 μg/ml, VEGF 1 nM, 6 h
Description: To analyze tissue factor expression on the surface of endothelial cells, HUVEC cells were incubated with TNFα (500 U/ml), LPS (10 μg/ml) or vascular endothelial growth factor (VEGF, 1 nM) alone or in combination for 6 h at 37°. Cells were then detached and stained for surface expression of human tissue factor with a sheep-anti-human tissue factor antibody (Haemochrom. Essen. Germany) and an appropriate FITC-conjugated secondary antibody. Fluorescent cells were detected on a flow cytometer (Becton Dickinson, San Jose, Calif.).

VCAM-1 = assay: FACS for upregulation of VCAM-1 on endothelial cells; assay type: cell-based, mouse
Description: (§1) Mouse endothelial cells were seeded in 48 well tissue culture plates and allowed to adhere overnight. Cells were stimulated with TNFα at the following concentrations: 500 U/ml; 100 U/ml; 20 U/ml; 4 U/ml; 0.8 U/ml; 0.16 U/ml; and with medium only.
Endothelial cells were then investigated for upregulation of the adhesion molecule VCAM-1 by fluorescence activated cell stain (FACS). To this end, cells were stained with an antibody against murine VCAM-1, followed by an appropriate FITC-conjugated secondary antibody. Fluorescent cells were detected on a flow cytometer (Becton Dickinson, San Jose, Calif.).

Mouse endothelial cells = assay: Cell based two stage coagulation assay after TNFα
Description: as §1
Endothelial cells were also tested for coagulant activity in a cell based two stage coagulation assay. After incubation with TNFα, cells were washed and incubated with coagulation factor mix (0.5 μg/ml factor VIIa in a mix containing 2.8 μg/ml factor IX, 3.4 μg/ml factor X, 50 μM phospholipids, in calcium buffer). The supernatant of wells was transferred into a 96 well ELISA plate. Substrate S2765 was added and Factor Xa generation measured.

[7] = in vivo; cited from earlier work
[8] = tested on: IL-1α-stimulated bEnd.3 cells; assay: Chromogenic assay of Factor Xa formation induced by cell-bound coaguligand; assay type: cell-based, mouse; details: 10 μg per ml Annexin V
Description: The ability of Annexin V to affect Factor Xa formation induced by coaguligand was determined by a chromogenic assay. […] Annexin V was added at concentrations ranging from 0.1 to 10 μg/ml and cells were incubated for 30 min, before addition of diluted Proplex T. The amount of Factor Xa generated in the presence or absence of Annexin V was determined. Each treatment was performed in duplicate and repeated at least twice.

[9] = tested on: L540 Hodgkin-bearing SCID mice; assay: Annexin V inhibition of coaguligand-induced thrombosis in vivo; design: species or system mouse
Description: The ability of Annexin V to inhibit coaguligand-induced thrombosis in vivo was examined in L540 Hodgkin-bearing SCID mice.
Four hours after the last injection mice were anesthetized and perfused with heparinized saline. Tumors were removed, fixed with 4% formalin, paraffin-embedded and stained with hematoxylene-eosin. The number of thrombosed and non-thrombosed blood vessels were counted and the percentage of thrombosis was calculated.

[10] = target: T1, recombinant human VEGF (VEGF165) (human, UniProt P15692-4 27-191); assay: competition ELISA, 1 nM VEGF on VEGFR1 (Flt-1/Fc) wells, 100 fold molar excess of 2C3
T1 construct: Dimeric VEGF seen at about 42 kd on blots; also called huVEGF; free VEGF

[11] = target: T1, recombinant human VEGF (VEGF165); assay: competition ELISA, 1 nM VEGF on VEGFR1 (Flt-1/Fc) wells, 1000 fold molar excess of 2C3

T1 sequence (P15692 other isoform, or with tags, fused parts or gaps limits assumed): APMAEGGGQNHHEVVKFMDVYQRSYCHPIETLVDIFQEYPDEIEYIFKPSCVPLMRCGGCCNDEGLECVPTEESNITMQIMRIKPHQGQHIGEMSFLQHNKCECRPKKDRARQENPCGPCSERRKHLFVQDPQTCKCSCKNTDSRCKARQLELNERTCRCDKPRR
Chain of human endoglin (human) (P17813 26-658): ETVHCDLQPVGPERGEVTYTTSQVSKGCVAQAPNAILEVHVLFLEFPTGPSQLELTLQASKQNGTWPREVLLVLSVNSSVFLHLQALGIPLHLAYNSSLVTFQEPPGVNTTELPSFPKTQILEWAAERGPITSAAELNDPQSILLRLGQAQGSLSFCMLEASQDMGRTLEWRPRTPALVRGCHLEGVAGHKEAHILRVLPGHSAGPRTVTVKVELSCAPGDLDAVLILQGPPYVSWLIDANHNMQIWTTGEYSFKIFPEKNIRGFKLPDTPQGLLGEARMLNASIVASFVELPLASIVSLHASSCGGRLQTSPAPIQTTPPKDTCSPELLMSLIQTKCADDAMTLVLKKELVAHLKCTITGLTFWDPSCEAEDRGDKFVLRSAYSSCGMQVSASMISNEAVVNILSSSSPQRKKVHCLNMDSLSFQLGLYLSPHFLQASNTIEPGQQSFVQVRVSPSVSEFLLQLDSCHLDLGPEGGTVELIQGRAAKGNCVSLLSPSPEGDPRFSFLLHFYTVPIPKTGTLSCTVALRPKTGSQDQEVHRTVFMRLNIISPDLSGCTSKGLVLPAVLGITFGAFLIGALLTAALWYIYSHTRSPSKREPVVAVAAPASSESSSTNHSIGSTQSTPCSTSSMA

For `NC(=O)c1nnn(Cc2cc(Cl)c(C(=O)c3ccc(Cl)cc3)c(Cl)c2)c1N` [CAI, carboxyamidotriazole], the “disease stabilization, share of cancer patients” value [1] is listed as 49%.

In the case of `OO` [H2O2], the “cells with PS at the cell surface” value ([2]; H2O2 as low as 20 μM) is reported as “about 50%”, the “cells with PS translocation” value ([2]; H2O2 higher than 100 μM, 1 hour) is reported as roughly 90% and the cell viability ([2]; low levels of H2O2 (lower than 100 μM), identical to untreated cells) is reported as 95%.

In the case of `COc1cc([C@@H]2c3cc4c(cc3[C@@H](O[C@@H]3O[C@@H]5CO[C@@H](C)O[C@H]5[C@H](O)[C@H]3O)[C@H]3COC(=O)[C@H]23)OCO4)cc(OC)c1O` [etoposide], the “average tumor volume, day 14” value [3] is reported as 1400 mm^3.

In the case of “Factor VIIa: activated coagulation Factor VII, recombinant human”, the “average area of necrosis in tumor sections” value [4] is listed as “some necrosis”, the half-life in vivo [5] is listed as “approximately two hours” and the “toxicity when given separately” value [6] is listed as “practically non-toxic to mice”.

In the case of TEC-11 anti-human endoglin antibody, the % of blood vessels in the tumor periphery to which the antibody localized (human endoglin (human)) is reported as 84% and the % of blood vessels throughout the tumor to which the antibody localized (human endoglin (human)) is reported as 46%.

With TNFα the “tissue factor expression on the surface of HUVEC” value (HUVEC cells) was “upregulated tissue factor expression”, the “TNFα required for measurable increase of VCAM-1 expression” value (VCAM-1) was 20 U/ml and the “TNFα at which an increase over negative control was detected in the coagulation assay” value (Mouse endothelial cells) was 0,16 U/ml. For the same molecule, the “dose for procoagulant effect, fold lower than for VCAM-1 increase” value (Mouse endothelial cells) was 125 fold.

For VEGF, the “tissue factor expression on the surface of HUVEC” value (HUVEC cells) was “upregulated tissue factor expression”.

For monophosphoryl lipid A [MPL], the “dose known to be safe for human use” value [7] is listed as 100 μg/m^2.

B1: tTF219 (G164A): tTF219 with amino acid 164 (Gly) replaced by Ala (protein)
chain: GSGTTNTVAAYNLTWKSTNFKTILEWEPKPVNQVYTVQISTKSGDWKSKCFYTTDTECDLTDEIVKDVKQTYLARVFSYPAGNVESTGSAGEPLYENSPEFTPYLETNLGQPTIQSFEQVGTKVNVTVEDERTLVRRNNTFLSLRDVFGKDLIYTLYYWKSSSSAKKTAKTNTNEFLIDVDKGENYCFSVQAVIPSRTVNRKSTDSPVECMGQEKGEFRE
In the case of B1, the “average area of necrosis in tumor sections” value [4] is reported as “some necrosis” and the “toxicity when given separately” value [6] is reported as “practically non-toxic to mice”.

B2: tTF219 (W158R) (protein)
chain: GSGTTNTVAAYNLTWKSTNFKTILEWEPKPVNQVYTVQISTKSGDWKSKCFYTTDTECDLTDEIVKDVKQTYLARVFSYPAGNVESTGSAGEPLYENSPEFTPYLETNLGQPTIQSFEQVGTKVNVTVEDERTLVRRNNTFLSLRDVFGKDLIYTLYYRKSSSSGKKTAKTNTNEFLIDVDKGENYCFSVQAVIPSRTVNRKSTDSPVECMGQEKGEFRE
For B2, the “toxicity when given separately” value [6] was “practically non-toxic to mice”.

B3: Annexin V: protein that binds to PS with high affinity (protein, UniProt P08758 2-320, looked up)
Annexin A5: AQVLRGTVTDFPGFDERADAETLRKAMKGLGTDEESILTLLTSRSNAQRQEISAAFKTLFGRDLLDDLKSELTGKFEKLIVALMKPSRLYDAYELKHALKGAGTNEKVLTEIIASRTPEELRAIKQVYEEEYGSSLEDDVVGDTSGYYQRMLVVLLQANRDPDAGIDEAQVEQDAQALFQAGELKWGTDEEKFITIFGTRSVSHLRKVFDKYMTISGFQIEETIDRETSGNLEQLLLAVVKSIRSIPAYLAETLYYAMKGAGTDDHTLIRVMVSRSEIDLFNIRKEFRKNFATSLYSMIKGDTSGDYKKALLLLCGEDD
With B3 the “inhibition of factor Xa production” value [8] was 58%, the “coaguligand-induced thrombosis and changes in tumor cell morphology after Annexin V pre-treatment” value ([9]; 100 μg Annexin V 2 hours before 40 μg anti-VCAM-1•tTF) was “completely abolished” and the tumor morphology ([9]; 100 μg Annexin V alone) was “did not alter tumor morphology”.

B4: 2C3 anti-VEGF antibody (antibody, V domains shown)
VH: QVQLQESGPELVKPGASVKMSCKASGYTFTSYVFHWVKQKPGQGLEWIGYINPYNDVTKYNEKFKGKATLTSDKSSSTAYMELSSLTSEDSAVYYCASYYGSSYGYYAMDDWGQGTTVTVSS
VL: DIQLTQSPASLSVSAGEKVTMSCKSSQSLLNSGNQKNYLAWYQQKPGQPPKLLIHGASTRESGVPDRFTGSGSGTDFTLTISSVQAEDLAVYYCQNDYSYPLTFGAGTKLELKR
In the case of B4, the “% of VEGF bound to VEGFR1-coated wells relative to the amount bound without 2C3” value [10] is reported as 92% and the “% of VEGF bound to VEGFR1-coated wells relative to the amount bound without 2C3” value [11] is reported as 105%.
